The nature of data set [1]: Solubility of FK 235 in water. The format is physicochemical.
For data set [2] the following is noted: fasting state; S.E. 0.7 min.; cited from earlier work.

SMILES strings stand for the structures.

The source of these data is patent US4690822A, “Novel drug carrier and pharmaceutical preparation comprising the same” (Fujisawa Pharmaceutical Co., Ltd., priority 1985, dated 1987).

Broadly, the solubility is how much of the substance goes into solution per volume. A lower solubility goes with a poorly soluble substance. For the compound `COC(=O)C1=C(C#N)NC(C)=C(C(=O)OC(C)C)C1c1cccc([N+](=O)[O-])c1` (centres unmarked) [FK 235, Isopropyl 6-cyano-5-methoxycarbonyl-2-methyl-4-(3-nitrophenyl)-1,4-dihydropyridine-3-carboxylate], in data set [1], the solubility was below 2 µg/mL. Consider `O` [water], for which, in data set [2], the “half-time of the passage of fluid through pylorus” value is 13.1 min.
